Assay results taken from PMC11059313 (Methods in molecular biology (Clifton, N.J.), 2023).
One block for each molecule: values may come before it. Non-standard residues stand in square brackets, D forms with d. No end group written: not given here. pY = N[C@@H](Cc1ccc(OP(=O)(O)O)cc1)C(=O)O

Assays:
[1] = pH 7.4
[2] = molecular target: T1, p120RasGAP N-terminal SH2 domain (residues 174-280, C236S, C261S) (UniProt P20936 174-280, C236S | C261S); test: co-crystallisation
T1 sequence (looked up): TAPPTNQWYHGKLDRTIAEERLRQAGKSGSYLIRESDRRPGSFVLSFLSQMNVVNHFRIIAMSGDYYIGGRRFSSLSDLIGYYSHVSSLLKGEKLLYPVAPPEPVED

Maximum Solubility [1]: 10000 µg/mL
Molecule: D[pY]AEPMDA [pY-1087]

binding result [2]: binds
B1: p190RhoGAP pTyr-1105 phosphopeptide (residues 1100-1112) (peptide)
peptide: Ac-EEENI[pY]SVPHDST-NH2
SMILES: CC[C@H](C)[C@H](NC(=O)[C@H](CC(N)=O)NC(=O)[C@H](CCC(=O)O)NC(=O)[C@H](CCC(=O)O)NC(=O)[C@H](CCC(=O)O)NC(C)=O)C(=O)N[C@@H](Cc1ccc(OP(=O)(O)O)cc1)C(=O)N[C@@H](CO)C(=O)N[C@H](C(=O)N1CCC[C@H]1C(=O)N[C@@H](Cc1c[nH]cn1)C(=O)N[C@@H](CC(=O)O)C(=O)N[C@@H](CO)C(=O)N[C@H](C(N)=O)[C@@H](C)O)C(C)C
